Measured values reported in US6432922B1 (Corvas International, Inc., priority 1998, dated 2002).
Where two headings read alike, the source gives them in different places. Non-standard residues stand in square brackets, D forms with d. Residues, ends and D or L forms follow the SMILES beside them. *: point of attachment. Fmoc = O=C(OCC1c2ccccc2-c2ccccc21)*; d(aThr) = C[C@@H](O)[C@@H](N)C(=O)O; d(hSer) = N[C@H](CCO)C(=O)O; NMeA = CN[C@@H](C)C(=O)O; Aze = O=C(O)[C@@H]1CCN1; Cbz = O=C(OCc1ccccc1)*; Sar = CNCC(=O)O; Moc = COC(=O)*

How the values were obtained:
Urokinase (Abbokinase) = Urokinase (Abbokinase) (Homo sapiens, UniProt P00749); assay: Urokinase chromogenic substrate (S-2444) IC50 assay
Procedure: The buffer used for all assays was HBSA (10 mM HEPES, pH 7.5, 150 mM sodium chloride, 0.1% bovine serum albumin).
The initial velocity of chromogenic substrate hydrolysis was measured by the change in absorbance at 405 nm using a Thermo Max® Kinetic Microplate Reader over a 5 minute period in which less than 5% of the added substrate was utilized.
The assay buffer was HBS (10mM HEPES, 150mM sodium chloride pH 7.4) with 0.1% BSA.

Human rt-PA (Activase) = biological target: T1, Human rt-PA (Activase) (Homo sapiens, UniProt P00750); assay: Recombinant tissue plasminogen activator (rt-PA) chromogenic assay; format: biochemical; conditions: 30 minute preincubation, HBSA buffer; read-out: tPA IC50
T1 construct: purchased Genentech Inc
Procedure: rt-PA catalytic activity was determined using the substrate, Pefachrome t-PA (CH3SO2-D-hexahydrotyrosine-glycyl-L-arginine-p-nitroaniline, obtained from Pentap harm Ltd.). The substrate was made up in deionized water followed by dilution in HBSA prior to the assay in which the final concentration was 500 micromolar (about 3-times Km). Human rt-PA (Activase®) was obtained from Genentech Inc. The enzyme was reconstituted in deionized water and diluted into HBSA prior to the assay in which the final concentration was 1.0 nM.

human plasmin = biological target: T2, human plasmin (Homo sapiens, UniProt P00747); assay: Plasmin chromogenic substrate (S-2366) assay; format: biochemical; conditions: 30 minute preincubation, HBSA buffer
T2 construct: purchased Enzyme Research Laboratories, Inc
Procedure: The substrate was made up in deionized water followed by dilution in HBSA prior to the assay in which the final concentration was 300 micromolar (about 2.5-times Km). Purified human plasmin was obtained from Enzyme Research Laboratories, Inc. The enzyme was diluted into HBSA prior to assay in which the final concentration was 1.0 nM.

[1] = read-out: uPA IC50, 30 minute preincubation, HBSA buffer

T1 sequence (P00750 36-562): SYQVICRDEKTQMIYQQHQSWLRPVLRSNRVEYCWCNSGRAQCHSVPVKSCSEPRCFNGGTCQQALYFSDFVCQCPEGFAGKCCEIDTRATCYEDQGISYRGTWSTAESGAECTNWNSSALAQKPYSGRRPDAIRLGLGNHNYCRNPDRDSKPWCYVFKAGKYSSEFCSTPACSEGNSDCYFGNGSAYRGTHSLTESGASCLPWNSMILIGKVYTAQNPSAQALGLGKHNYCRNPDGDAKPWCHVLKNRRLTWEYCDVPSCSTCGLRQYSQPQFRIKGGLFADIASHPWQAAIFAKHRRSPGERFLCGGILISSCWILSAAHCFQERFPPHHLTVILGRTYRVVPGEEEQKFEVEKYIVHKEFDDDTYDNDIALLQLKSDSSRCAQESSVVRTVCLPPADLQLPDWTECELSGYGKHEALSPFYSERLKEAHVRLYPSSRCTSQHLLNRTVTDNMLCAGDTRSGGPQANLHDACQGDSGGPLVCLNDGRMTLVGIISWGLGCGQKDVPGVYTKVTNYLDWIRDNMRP
T2 sequence (P00747 581-810 limits assumed): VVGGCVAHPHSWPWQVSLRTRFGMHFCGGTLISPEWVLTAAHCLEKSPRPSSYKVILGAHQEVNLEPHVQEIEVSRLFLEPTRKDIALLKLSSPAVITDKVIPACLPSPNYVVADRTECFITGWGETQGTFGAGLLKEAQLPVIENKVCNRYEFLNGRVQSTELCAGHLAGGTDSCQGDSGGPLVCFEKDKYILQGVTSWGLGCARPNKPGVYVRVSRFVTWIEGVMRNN
T2 sequence (P00747 97-580 partner limits assumed): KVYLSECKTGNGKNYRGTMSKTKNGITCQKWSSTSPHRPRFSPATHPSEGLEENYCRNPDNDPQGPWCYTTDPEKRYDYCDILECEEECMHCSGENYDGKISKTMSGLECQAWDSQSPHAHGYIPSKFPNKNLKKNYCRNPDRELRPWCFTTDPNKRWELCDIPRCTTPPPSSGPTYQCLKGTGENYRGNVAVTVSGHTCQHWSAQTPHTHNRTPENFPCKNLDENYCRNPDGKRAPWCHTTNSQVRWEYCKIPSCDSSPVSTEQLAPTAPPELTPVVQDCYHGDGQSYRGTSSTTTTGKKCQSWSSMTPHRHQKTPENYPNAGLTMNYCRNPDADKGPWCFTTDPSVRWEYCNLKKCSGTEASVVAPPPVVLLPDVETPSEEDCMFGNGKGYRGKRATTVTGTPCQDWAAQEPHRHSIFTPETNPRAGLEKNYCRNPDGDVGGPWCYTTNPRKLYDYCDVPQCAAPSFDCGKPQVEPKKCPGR

| Compound | IC50 (Urokinase (Abbokinase)) | IC50 (Human rt-PA (Activase)) | IC50 (human plasmin) | IC50 (Urokinase (Abbokinase); [1]) |
| --- | --- | --- | --- | --- |
| CC1CCC(C(C)C)C(OC(=O)N[C@H](CO)C(=O)N[C@@H](C)C(=O)N[C@H](C=O)CCCNC(=N)N)C1 (single isomer, unassigned; (+)) [Compound 7, (+)menthyloxy-carbonyl-D-seryl-alanyl-argininal] | < 0.1 µM | > 2.5 µM |  |  |
| C[C@H](NC(=O)[C@@H](CO)NC(=O)Oc1ccc2ccccc2c1)C(=O)N[C@H](C=O)CCCNC(=N)N [Compound 4, 2-naphthyloxy-carbonyl-D-seryl-alanyl-argininal] | < 0.1 µM | > 2.5 µM |  |  |
| C[C@H](NC(=O)[C@@H](CO)NC(=O)Oc1ccccc1)C(=O)N[C@H](C=O)CCCNC(=N)N [Compound 5, phenoxycarbonyl-D-seryl-alanyl-argininal] | < 0.1 µM | > 2.5 µM |  |  |
| COC(=O)N[C@H](CO)C(=O)N[C@@H](C)C(=O)N[C@H](C=O)CCCNC(=N)N [Compound 8, methyloxycarbonyl-D-seryl-alanyl-argininal] (Moc-[dS]-Ala-Arg-aldehyde) | < 0.1 µM | > 2.5 µM |  |  |
| CCCCOC(=O)N[C@H](CO)C(=O)N[C@@H](C)C(=O)N[C@H](C=O)CCCNC(=N)N [Compound 9, n-butyloxycarbonyl-D-seryl-alanyl-argininal] | < 0.1 µM | > 2.5 µM |  |  |
| N=C(N)NCCC[C@@H](C=O)NC(=O)[C@@H]1CCCN1C(=O)[C@@H](CO)NC(=O)OCc1ccccc1 [Compound 11, benzyloxycarbonyl-D-seryl-prolyl-argininal] (Cbz-[dS]-Pro-Arg-aldehyde) | < 0.1 µM | > 2.5 µM | 0.25 to 2.5 µM |  |
| N=C(N)NCCC[C@@H](C=O)NC(=O)[C@@H]1CCN1C(=O)[C@@H](CO)NC(=O)OCc1ccccc1 [Compound 12, benzyloxycarbonyl-D-seryl-L-azetidine-2-carbonyl-argininal] (Cbz-[dS]-[Aze]-Arg-aldehyde) | < 0.1 µM | > 2.5 µM | 0.25 to 2.5 µM |  |
| N=C(N)NCCC[C@@H](C=O)NC(=O)[C@@H]1CCCCN1C(=O)[C@@H](CO)NC(=O)OCc1ccccc1 [Compound 13] | 0.1 to 0.25 µM | > 2.5 µM |  |  |
| CC[C@H](NC(=O)[C@@H](CO)NC(=O)OCc1ccccc1)C(=O)N[C@H](C=O)CCCNC(=N)N [Compound 14] | < 0.1 µM | > 2.5 µM |  |  |
| CSC[C@H](NC(=O)[C@@H](CO)NC(=O)OCc1ccccc1)C(=O)N[C@H](C=O)CCCNC(=N)N [Compound 15, benzyloxycarbonyl-D-seryl-S-methylcysteinyl-argininal] (Cbz-[dS]-Cys(Me)-Arg-aldehyde) | 0.1 to 0.25 µM | > 2.5 µM |  |  |
| CCCC(NC(=O)[C@@H](CO)NC(=O)OCc1ccccc1)C(=O)NC(C=O)CCCNC(=N)N (some centres unmarked) [Compound 16] | 0.1 to 0.25 µM | > 2.5 µM |  |  |
| N=C(N)NCCCC(C=O)NC(=O)CNC(=O)[C@@H](CO)NC(=O)OCc1ccccc1 (some centres unmarked) [Compound 17] | 0.1 to 0.25 µM | > 2.5 µM |  |  |
| C[C@H](NC(=O)[C@@H](C)NC(=O)OCc1ccccc1)C(=O)N[C@H](C=O)CCCNC(=N)N [Compound 21, benzyloxycarbonyl-D-alanyl-alanyl-argininal] (Cbz-[dA]-Ala-Arg-aldehyde) | 0.1 to 0.25 µM |  |  |  |
| N=C(N)NCCCC(C=O)NC(=O)C1CCN1C(=O)C(CO)NS(=O)(=O)c1ccccc1 [Compound 31, benzenesulfonyl-D-seryl-azetidyl-argininal] |  |  | 0.25 to 2.5 µM | < 0.1 µM |

Second part, led by results:

| IC50 (Urokinase (Abbokinase)) | IC50 (Human rt-PA (Activase)) | IC50 (human plasmin) | Compound | IC50 (Urokinase (Abbokinase); [1]) |
| --- | --- | --- | --- | --- |
|  | > 2.5 µM |  | CC1CCC(C(C)C)C(OC(=O)N[C@H](CO)C(=O)N[C@@H](C)C(=O)N[C@H](C=O)CCCNC(=N)N)C1 (single isomer, unassigned; (-)) [Compound 3, (−)menthyloxy-carbonyl-D-seryl-alanyl-argininal] | < 0.1 µM |
| < 0.1 µM | 0.25 to 2.5 µM | 0.25 to 2.5 µM | C[C@H](NC(=O)[C@@H](CO)NC(=O)OCc1ccccc1)C(=O)N[C@H](C=O)CCCNC(=N)N [Compound 2, Benzyloxycarbonyl-D-seryl-alanyl-argininal] (Cbz-[dS]-Ala-Arg-aldehyde) |  |
| < 0.1 µM | > 2.5 µM |  | CCCCC(CC)COC(=O)N[C@H](CO)C(=O)N[C@@H](C)C(=O)N[C@H](C=O)CCCNC(=N)N (stereo partly drawn) [Compound 6, 2-ethylhexyloxy-carbonyl-D-seryl-alanyl-argininal] |  |
| < 0.1 µM | > 2.5 µM |  | C[C@H](NC(=O)[C@@H](CO)NC(=O)OCC1c2ccccc2-c2ccccc21)C(=O)N[C@H](C=O)CCCNC(=N)N [Compound 10, Fluorenylmethyloxycarbonyl-D-seryl-alanyl-argininal] (Fmoc-[dS]-Ala-Arg-aldehyde) |  |
| 0.25 to 2.5 µM | > 2.5 µM |  | CN(CC(=O)N[C@H](C=O)CCCNC(=N)N)C(=O)[C@@H](CO)NC(=O)OCc1ccccc1 [Compound 18, benzyloxycarbonyl-D-seryl-sarcosyl-argininal] (Cbz-[dS]-[Sar]-Arg-aldehyde) |  |
| < 0.1 µM | > 2.5 µM | 0.25 to 2.5 µM | C[C@H](NC(=O)[C@H](NC(=O)OCc1ccccc1)[C@@H](C)O)C(=O)N[C@H](C=O)CCCNC(=N)N [Compound 19, benzyloxycarbonyl-D-allothreonyl-alanyl-argininal] (Cbz-[d(aThr)]-Ala-Arg-aldehyde) |  |
| 0.1 to 0.25 µM | > 2.5 µM |  | C[C@H](NC(=O)[C@@H](NC(=O)OCc1ccccc1)[C@@H](C)O)C(=O)N[C@H](C=O)CCCNC(=N)N [Compound 20, benzyloxycarbonyl-threonyl-alanyl-argininal] (Cbz-Thr-Ala-Arg-aldehyde) |  |
| 0.25 to 2.5 µM | > 2.5 µM |  | C[C@H](NC(=O)[C@H](NC(=O)OCc1ccccc1)[C@H](C)O)C(=O)N[C@H](C=O)CCCNC(=N)N [Compound 22, benzyloxycarbonyl-D-threonyl-alanyl-argininal] (Cbz-[dT]-Ala-Arg-aldehyde) |  |
| 0.25 to 2.5 µM | > 2.5 µM |  | C[C@H](NC(=O)[C@H](CO)NC(=O)OCc1ccccc1)C(=O)N[C@H](C=O)CCCNC(=N)N [Compound 23, benzyloxycarbonyl-seryl-alanyl-argininal] (Cbz-Ser-Ala-Arg-aldehyde) |  |
| 0.1 to 0.25 µM |  |  | C[C@@H](O)[C@@H](NC(=O)OCc1ccccc1)C(=O)N(C)CC(=O)N[C@H](C=O)CCCNC(=N)N [Compound 24, benzyloxycarbonyl-D-allothreonyl-sarcosyl-argininal] (Cbz-[d(aThr)]-[Sar]-Arg-aldehyde) |  |
| 0.1 to 0.25 µM |  |  | C[C@@H](O)[C@@H](NC(=O)OCc1ccccc1)C(=O)N(C)[C@@H](C)C(=O)N[C@H](C=O)CCCNC(=N)N [Compound 25, benzyloxycarbonyl-D-allothreonyl-N-methylalanyl-argininal] (Cbz-[d(aThr)]-[NMeA]-Arg-aldehyde) |  |
| 0.1 to 0.25 µM | > 2.5 µM |  | C[C@H](O)[C@@H](NC(=O)OCc1ccccc1)C(=O)N1CCC[C@H]1C(=O)N[C@H](C=O)CCCNC(=N)N [Compound 26, benzyloxycarbonyl-D-threonyl-prolyl-argininal] (Cbz-[dT]-Pro-Arg-aldehyde) |  |
| 0.1 to 0.25 µM | > 2.5 µM | < 0.1 µM | N=C(N)NCCC[C@@H](C=O)NC(=O)[C@@H]1CCCN1C(=O)[C@@H](CCO)NC(=O)OCc1ccccc1 [Compound 27, benzyloxycarbonyl-D-homoseryl-prolyl-argininal] (Cbz-[d(hSer)]-Pro-Arg-aldehyde) |  |
